Source: patent US9676789B2, “Aminated derivative of homoharringtonine, preparation method therefor, and application thereof” (HANGZHOU BENSHENG PHARMACEUTICAL CO., LTD., priority 2011, dated 2017)

Legend:
[1] = test system: SK-OV-3 (ovarian cancer cell); assay: MTT solid tumor cell growth inhibition, 72 h; assay type: cell-based, human; settings: SK-OV-3, 72 h
Outline: (§1)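 Cells seeded at 4000 per well in DMEM high glucose with 10% FBS were grown 24 h at 37° C, 5% CO2, then exposed to homoharringtonine derivatives at various concentrations for 72 h. Viable cells were measured by MTT, and viability (%) was expressed relative to untreated controls set at 100%.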

[2] = test system: U87 MG (malignant glioma cell); assay: MTT solid tumor cell growth inhibition, 72 h; assay type: cell-based, human
Outline: as §1

[3] = test system: CNE (nasopharyngeal carcinoma cell); assay: MTT solid tumor cell growth inhibition, 72 h; assay type: cell-based, human
Outline: as §1

[4] = test system: PANC-1 (pancreatic cancer); assay: MTT solid tumor cell growth inhibition, 72 h; assay type: cell-based, human; settings: PANC-1, 72 h
Outline: as §1

[5] = test system: MG63 (osteosarcoma); assay: MTT solid tumor cell growth inhibition, 72 h; assay type: cell-based, human; settings: MG 63, 72 h
Outline: as §1

[6] = test system: CaES-17 (esophageal cancer cell); assay: MTT solid tumor cell growth inhibition, 72 h; assay type: cell-based, human; settings: CaES-17, 72 h
Outline: as §1

[7] = test system: PC-3 (prostate cancer); assay: MTT solid tumor cell growth inhibition, 72 h; assay type: cell-based, human; settings: PC-3, 72 h
Outline: as §1

[8] = test system: RPMI8226 (multiple myeloma); assay: MTT multiple myeloma cell growth inhibition, 72 h; assay type: cell-based, human
Outline: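 RPMI8226 cells at 6000 per well in 1640 medium with 10% fetal bovine serum, exposed to homoharringtonine derivatives at various concentrations. Incubation 72 h at 37° C, 5% CO2; viable cells read by MTT.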

[9] = test system: A549 (human lung cancer); assay: MTT solid tumor cell growth inhibition, 72 h; assay type: cell-based; settings: A549, 72 h
Outline: as §1

[10] = test system: Hela (human cervical cancer cell); assay: MTT solid tumor cell growth inhibition, 72 h; assay type: cell-based; settings: Hela
Outline: as §1

[11] = test system: Becap37 (human breast cancer cell); assay: MTT solid tumor cell growth inhibition, 72 h; assay type: cell-based; settings: Becap37, 72 h
Outline: as §1

[12] = test system: RKO (human colon adenocarcinoma cell); assay: MTT solid tumor cell growth inhibition, 72 h; assay type: cell-based
Outline: as §1

[13] = test system: MGC 803 (human gastric cancer cell); assay: MTT solid tumor cell growth inhibition, 72 h; assay type: cell-based; settings: MGC 803, 72 h
Outline: as §1

[14] = test system: Hep-2 (human hepatocellular carcinoma); assay: MTT solid tumor cell growth inhibition, 72 h; assay type: cell-based; settings: Hep2, 72 h
Outline: as §1

[15] = test system: Huh7 (human liver cancer cell); assay: MTT solid tumor cell growth inhibition, 72 h; assay type: cell-based; settings: Huh7, 72 h
Outline: as §1

[16] = test system: A549, PANC-1, Becap37, MG63, Huh7, RKO, Hela, CaES-17, CNE, Hep-2, PC-3 and SK-OV-3; assay: Anti-human solid tumor effect, summary over cell lines; assay type: cell-based; settings: result in words, summary of Table 2
Method: Human solid tumor cell lines: Hep-2 ([…]), A549 (human lung cancer), CaES-17 (esophageal cancer cell), PC-3 (prostate cancer), CNE (nasopharyngeal carcinoma cell), and SK-OV-3 (ovarian cancer cell), all of which are purchased from China Center For Type Culture Collection; RKO (human colon adenocarcinoma cell), MGC 803 (human gastric cancer cell), MG63 (osteosarcoma) and U87 MG (malignant glioma cell), all of which are purchased from Fuxiang Bio-tech Co. Ltd., Shanghai, China; PANC-1 (pancreatic cancer), Huh7 (human liver cancer cell), Becap37 (human breast cancer cell), and Hela (human cervical cancer cell), all of which are donated by Cancer Research Institute of Zhejiang University, China.
Obtaining 4000 well-growing human solid tumor cells and inoculating them into wells of a 96-well cell culture plate. The culture medium is DMEM High Glucose cell culture medium containing 10% fetal bovine serum. The plate is placed in a carbon dioxide cell incubator (5% CO2) at 37° C. and incubating for 24 hours. After adding the homoharringtonine derivatives of different concentration and mixing uniformly, the plate is placed in a carbon dioxide cell incubator (5% CO2) at 37° C. and incubating for 72 hours. Then the viable cell concentration is determined by the MTT method and the cell viability (%) after drug treatment is calculated. In this experiment, the cell viability of control group (not treated with any compound) is set as 100%.

[17] = test system: K562/adr, NB4, Kasumi-1 and H9; assay: Anti-leukemia activity, summary over cell lines; assay type: cell-based, human; settings: result in words, summary of Table 1
From the text: Leukemia cell lines: K562/adr (drug-resistant, chronic myeloid leukemia, CML), NB4 (acute promyelocytic leukemia, AML), Kasumi-1 (acute myeloid leukemia M2 type, AML-M2), Jurkat (acute lymphoblastic leukemia, ALL), all of which are donated by Cancer Research Institute of Zhejiang University, China; and H9 (acute lymphoblastic leukemia, ALL), which is purchased from China Center for Type Culture Collection.
Obtaining 6000 well-growing leukemia cells and inoculating them into wells of a 96-well cell culture plate. The culture medium is the 1640 cell culture medium containing 10% fetal bovine serum. After adding the homoharringtonine derivatives of different concentrations and mixing uniformly, placing the plate in a carbon dioxide cell incubator (5% CO2) at 37° C. and incubating for 72 hours. Then the viable cell concentration is determined by the MTT method. In this experiment, the cell viability in control group (not treated with any compound) is set as 100%.

[18] = test system: H9 (acute lymphoblastic leukemia, ALL); assay: MTT leukemia cell growth inhibition, 72 h; assay type: cell-based, human; settings: H9, 72 h
Outline: (§2)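 Cells were seeded at 6000 per well in RPMI-1640 with 10% FBS and exposed to homoharringtonine derivatives at various concentrations for 72 h at 37°C, 5% CO2. Viable cells were measured by MTT. Untreated controls were set as 100% viability.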

[19] = test system: NB4 (acute promyelocytic leukemia, AML); assay: MTT leukemia cell growth inhibition, 72 h; assay type: cell-based, human; settings: NB4, 72 h
Outline: as §2

[20] = test system: Kasumi-1 (acute myeloid leukemia M2 type, AML-M2); assay: MTT leukemia cell growth inhibition, 72 h; assay type: cell-based, human; settings: Kasumi-1, 72 h
Outline: as §2

[21] = test system: K562/adr (drug-resistant, chronic myeloid leukemia, CML); assay: MTT leukemia cell growth inhibition, 72 h; assay type: cell-based, human; settings: K562/adr
Outline: as §2

[22] = test system: Jurkat (acute lymphoblastic leukemia, ALL); assay: MTT leukemia cell growth inhibition, 72 h; assay type: cell-based, human
Outline: as §2

Question: Which IC50 [1] does the source give for “O-3-[(2R)-2,6-dihydroxy-2-(2′-pyrrolyl-2′-oxoethyl)-6-methylheptanoyl]cephalotaxine [BS-HH-012]” here?
Answer: The IC50 was 0.41 µg/mL.

Question: What about the IC90 [1] of the same substance?
Answer: Its IC90 is greater than 16 µg/mL.

Question: What about the IC50 [2] of the same substance?
Answer: Its IC50 is 0.24 µg/mL.

Question: And the IC90 [2]?
Answer: The IC90 was 1.13 µg/mL.

Question: And the IC50 [3]?
Answer: Its IC50 is 0.13 µg/mL.

Question: And the IC90 [3]?
Answer: Its IC90 is greater than 16 µg/mL.

Question: And the IC50 [4]?
Answer: Its IC50 is 0.26 µg/mL.

Question: What about the IC90 [4] of the same substance?
Answer: Its IC90 is greater than 16 µg/mL.

Question: What about the IC50 [5] of the same substance?
Answer: The IC50 was 0.18 µg/mL.

Question: What about the IC90 [5] of the same substance?
Answer: The IC90 was greater than 16 µg/mL.

Question: And the IC50 [6]?
Answer: The IC50 was 0.43 µg/mL.

Question: What about the IC90 [6] of the same substance?
Answer: Its IC90 is greater than 16 µg/mL.

Question: What about the IC50 [7] of the same substance?
Answer: Its IC50 is 0.32 µg/mL.

Question: What about the IC90 [7] of the same substance?
Answer: Its IC90 is greater than 16 µg/mL.

Question: And the IC50 ([8]; RPMI8226, 72 h)?
Answer: Its IC50 is 0.057 µg/mL.

Question: What about the IC90 ([8]; RPMI8226, 72 h) of the same substance?
Answer: Its IC90 is 0.36 µg/mL.

Question: What about the “anti-RPMI8226 (multiple myeloma) effect” value ([8]; result in words, summary of Table 2) of the same substance?
Answer: Its value is “strong”.

Question: What about the IC50 [9] of the same substance?
Answer: The IC50 was 0.45 µg/mL.

Question: What about the IC90 [9] of the same substance?
Answer: Its IC90 is greater than 16 µg/mL.

Question: And the IC50 [10]?
Answer: The IC50 was 0.35 µg/mL.

Question: What about the IC90 [10] of the same substance?
Answer: The IC90 was greater than 16 µg/mL.

Question: What about the IC50 [11] of the same substance?
Answer: Its IC50 is 0.26 µg/mL.

Question: What about the IC90 [11] of the same substance?
Answer: The IC90 was 16 µg/mL.

Question: And the IC50 [12]?
Answer: The IC50 was 0.11 µg/mL.

Question: And the IC90 [12]?
Answer: The IC90 was 0.43 µg/mL.

Question: And the IC50 [13]?
Answer: Its IC50 is 0.24 µg/mL.

Question: What about the IC90 [13] of the same substance?
Answer: Its IC90 is 6.84 µg/mL.

Question: And the IC50 [14]?
Answer: Its IC50 is 0.15 µg/mL.

Question: What about the IC90 [14] of the same substance?
Answer: The IC90 was greater than 16 µg/mL.

Question: What about the IC50 [15] of the same substance?
Answer: Its IC50 is 0.2 µg/mL.

Question: And the IC90 [15]?
Answer: Its IC90 is greater than 16 µg/mL.

Question: And the “anti-A549, anti-PANC-1, anti-Becap37, anti-MG63, anti-Huh7, anti-RKO, anti-Hela, anti-CaES-17, anti-CNE, anti-Hep-2, anti-PC-3 and anti-SK-OV-3 effect” value [16]?
Answer: Its value is “strong”.

Question: And the “anti-K562/adr, anti-NB4, anti-Kasumi-1 and anti-H9 activity” value [17]?
Answer: Its value is “strong”.

Question: And the IC50 [18]?
Answer: Its IC50 is 0.27 µg/mL.

Question: What about the IC90 [18] of the same substance?
Answer: Its IC90 is 3.49 µg/mL.

Question: And the IC50 [19]?
Answer: Its IC50 is 0.08 µg/mL.

Question: And the IC90 [19]?
Answer: The IC90 was 0.23 µg/mL.

Question: What about the IC50 [20] of the same substance?
Answer: The IC50 was 0.038 µg/mL.

Question: What about the IC90 [20] of the same substance?
Answer: Its IC90 is 0.14 µg/mL.

Question: What about the IC50 [21] of the same substance?
Answer: Its IC50 is 0.65 µg/mL.

Question: And the IC90 [21]?
Answer: Its IC90 is 9.87 µg/mL.

Question: And the IC50 [22]?
Answer: The IC50 was 0.058 µg/mL.

Question: And the IC90 [22]?
Answer: Its IC90 is 16 µg/mL.
